Series [1] concerns human cardiac OOC.
Excerpt: (§2) The pillars subjected the hydrogel to mechanical loading designed to mimic that in the native heart. The hydrogel compaction caused passive tension in the tissues as they're stretched and aligned between the pillars. Synchronous contractions forced the tissues to work against the pillars. […] Cardiac model development: Cardiac tissues were formed by cell encapsulation in fibrin hydrogel. Human iPS cell-derived cardiomyocytes at day 16 of differentiation were combined with normal human dermal fibroblasts (NHDF; Lonza) at a ratio of 75% hiPSC-CMs and 25% NHDF, for a total of 1 million cells per tissue. The hydrogel was formed by mixing 33 mg/mL of fibrinogen from human plasma (Sigma-Aldrich) with 25 U/mL of thrombin from human plasma (Sigma-Aldrich), on a 84:16 ratio. The hydrogel mixed with the cells was dispensed into each well of the tissues formation reservoir and allowed to polymerize at 37° C. for 15 min before adding RPMI Medium 1640 supplemented with B-27™ containing 0.2 mg/ml aprotinin (Sigma-Aldrich). Subsequently, medium was changed every other day supplemented with 0.2 mg/ml aprotinin for the first 7 days. After 7 days, tissues were used in experiments. […] Contractility videos: Tissue contractility was measured by tracking the change in tissue area as a function of time. […] Absolute differences in cell area from the baseline frame were then calculated to create a time course of cell area dynamics as a function of time. The resulting time courses were analysed using a native MATLAB (MATHWorks) automated peak finding algorithm to determine locations of maximum cell contraction indicated by the locations of local maxima in the time courses. Beat period lengths were determined from the length of time between the pairs of local maxima. Beat frequencies were determined by inverting beat periods; relaxation times were measured from the length of time required for the tissue to relax from the peak contraction amplitude of the local maxima to the calculated relaxation amplitude.
Series [2] has as its system cardiac compartment. The series can be described thus: Doxorubicin study: cardiac compartment function. The series is classed as cell-based, human. The settings on record: 30 μM, 72 hours.
Series [3] has as its system skin tissues. Briefly: Doxorubicin study: skin barrier transport and TEER. The series is classed as cell-based, human. The note with it: 30 μM, 72 hours, isolated and integrated comparable. As to the method: (§1) Common tissue responses were measured for each tissue individually, 72 hours after their assembly into the integrated platform and exposure to 30 μM concentration of doxorubicin introduced into the circulatory perfusion. FIG. 61 illustrates the Doxorubicin (Dox) drug study design including four conditions tests (integrated control, integrated Dox, isolated control, isolated Dox).

In series [4] the test system is Liver tissues. Briefly: Doxorubicin study: liver functionality. The series is classed as cell-based, human. The settings on record: 30 μM, 72 hours, only in the integrated experimental groups. As for the experimental part:
as §1

The test system of series [5] is Bone tissues. The series can be described thus: Doxorubicin study: bone remodeling and histology. The settings on record: 30 μM, 72 hours. As to the method: as §1
Series [6] relates to all tissue types. Briefly: Doxorubicin study in integrated multi-tissue platform: common toxicity readouts. Format: cell-based, human. The settings on record: 72 hours after 30 μM dose.
Series [7] concerns human cardiac OOC. The series can be described thus: cells. The note with it: read-out: EC50 of increase in beat frequency.
Excerpt: as §2

Structures can show the parent of a compound that is named as a salt.

For orientation: EC50 means the concentration that produces a half-maximal response.

For the compound `CCCCc1oc2ccccc2c1C(=O)c1cc(I)c(OCCN(CC)CC)c(I)c1` [amiodarone, amiodarone hydrochloride], the beating frequency result in series [1] (amiodarone 2.42 μM (FIG. 50 legend prints 2.42 M), over 48 hours) is recorded as “beating frequency decreased”.
Take `Cn1c(=O)c2c(ncn2C)n(C)c1=O` [caffeine]: in series [1] (caffeine 50 mM), the beat frequency result is on record as “increase in beat frequency”.
Consider `COc1cccc2c1C(=O)c1c(O)c3c(c(O)c1C2=O)C[C@@](O)(C(=O)CO)C[C@@H]3O[C@H]1C[C@H](N)[C@H](O)[C@H](C)O1` [doxorubicin, doxorubicin hydrochloride], for which, in series [2], the “contractile and conductive behavior” value is “decreased contractile and conductive behavior”; the release of troponin entry is “increased release of troponin”. In addition, the “electrical resistance (TEER) of skin” value in series [3] is “electrical resistance decreased”. Moreover, in series [4], the albumin production result is listed as “decreased albumin” and the urea production entry is reported as “unaffected urea production”. The “TRAP activity (bone remodeling)” value in series [5] was “stable TRAP responses”. In series [6], the cell viability entry is “significant decreases”, the glucose consumption result was “significant decreases” and the mitochondrial activity entry is reported as “significant decreases”.
`CC(C)NCC(O)c1ccc(O)c(O)c1` (stereo not drawn) [isoproterenol, isoproterenol hydrochloride]: the EC50 in series [7] worked out at 30 nM.

These data come from patent publication US12529022B2, “Human organ-on-chip models for predictive screening” (The Trustees of Columbia University in the City of New York, priority 2018, dated 2026).
